Data: US20200306210A1 (ZOGENIX INTERNATIONAL LIMITED, priority 2017, published 2020)
Structures can show the parent of a compound that is named as a salt.

Legend:
[1] = tested on: children and young adults with Dravet syndrome; experiment: Study 1: randomized, double-blind, placebo-controlled trial of ZX008, monthly convulsive seizure frequency (MCSF); type: in vivo, Human; settings: for Longest seizure free interval, estimate of median treatment difference: Hodges-Lehman estimator; for Greater reduction in mean MCSF compared with placebo: 14-week treatment period; for Near-seizure freedom (0 or a single seizure during 14-week Treatment Period), % of subjects / Near-seizure freedom (0 or a single seizure during 14-week Treatment Period), number of subjects: post-hoc analysis
Text: Human patients, age 2 to 18 years, inclusive, having a documented medical history to support a clinical diagnosis of Dravet syndrome and a history of seizures (either generalized tonic-clonic or unilateral clonic or bilateral clonic, and prolonged) were recruited, and selected for inclusion in the study according to criteria comprising a combination of age, physical and psychological characteristics, and (optionally) resistance to treatment with conventional therapies. Included subjects were assessed over the course of this 22-week study. The study protocols were reviewed and approved by the institutional review board or ethics committee for each study site before any study activation at the site. All patients or their legal representatives signed informed consent/assent prior to enrolling in the trial.
Subjects had ≥4 convulsive seizures (tonic, tonic atonic, tonic-clonic, clonic) per 4-week period for past 12 weeks prior to screening, by parent/guardian report to investigator or investigator medical notes.
Potential subjects enrolled in a 6-week baseline to establish seizure frequency and determine eligibility. Seizures were documented by parents or caregivers in an electronic study diary as to date, time of day, duration, and seizure type. To qualify for randomization each subject must have had ≥6 convulsive seizures during the baseline period with ≥2 in the first 3 weeks and ≥2 in the last 3 weeks. For this study convulsive seizures were defined as hemiclonic, tonic, clonic, tonic-atonic, generalized tonic-clonic, and focal with clear observable motor signs. The six-week Baseline Period started with a screening visit followed by an observation period where subjects were assessed for baseline seizure activity based on recordings of daily seizure activity entered into the diary.
Randomization was double-blind and stratified by age group (<6 years, ≥6 years) across treatment groups. A placebo solution, identical in appearance and taste, was also provided. Daily doses were administered with food in 2 equal doses, one in the morning and one in the evening approximately 12 hours apart. […] The other groups underwent dummy titrations to maintain the blind. Patients were maintained on their final dose for an additional 12 weeks (the Maintenance Period). At the conclusion of the Treatment Period (Titration plus Maintenance), eligible patients electing to continue in an optional open-label extension (OLE) study underwent a 2-week transition period, whereas patients exiting the study underwent a 2-week taper and follow-up.
ZX008 was supplied as an oral solution in concentrations of 1.25, 2.5, and 5 mg/mL. Subjects will be randomized to receive 1 of 2 doses of ZX008 (0.2 mg/kg/day, 0.8 mg/kg/day; up to 30 mg/day) or placebo. Study medication will be administered twice a day (BID) in equally divided doses with food. To the placebo group, as a negative control, an oral solution not containing fenfluramine was administered.
Monthly convulsive seizure frequency (MCSF) was expressed per 28 days. The primary end point was the change in mean MCSF) between the baseline period and the combined titration and maintenance periods in subjects treated with ZX008 0.8 mg/kg/day compared with the group treated with placebo. Five key secondary end points were pre-specified: the comparison of the ZX008 0.2 mg/kg/day group with placebo for the change in MCSF between baseline and the combined titration and maintenance periods, comparison of both ZX008 groups independently with placebo on the proportion of subjects who achieved a ≥50% reduction from baseline in MCSF and the comparison of both ZX008 groups with placebo on the longest seizure-free interval observed in each group. A serial gatekeeping procedure was used to maintain the simultaneous type 1 error rate at α=0.05 across the analyses of the primary and 5 key secondary end points. […]

[2] = tested on: children and young adults with Dravet syndrome; experiment: Study 1: Behavior Rating Inventory of Executive Function (BRIEF); type: in vivo, Human; settings: for BRIEF Global Executive Composite, change from baseline, mean: raw scores, negative = improvement
Text: In the BRIEF test, the parent/caregiver and/or the patient (e.g., child or adolescent self-reporting) responds to a series of statements or questions in the form of questionnaires, where an answer of “N”=Never a problem, “S”=Sometimes a problem, and “O”=Often a problem are used to indicate that the behavior being described or assessed has occurred in the past 6 months.
Each questionnaire of the BRIEF parent- and teacher-rating form contains 86 items in eight non-overlapping clinical scales and two validity scales. Based on theoretical and empirical analyses (reviewed in chapter 5 of Gioia, Ibid.), the clinical scales combine to form two indexes: a) Behavioral Regulation (three scales) and b) Metacognition (five scales), as well as a Global Executive Composite (GEC), which is a summary score that takes into account all eight clinical scales of the BRIEF and represents the child's overall executive function. There are also two validity scales to measure Negativity and Inconsistency of responses. Scores on the Negativity scale measures the extent to which the respondent answered selected items in an unusually negative manner whereas scores on the Inconsistency scale indicate the extent to which the respondent answered similar items in an inconsistent manner.
The BRIEF (BRIEF-A or BRIEF-P) were administered at the time of patient randomization (on visit 3, which was one day before (study day “−1”) treatment began (study day 1)); the BRIEF was administered again during visit 8 (study day 43), and at the end of the study (visit 12, study day 99) to assess cognitive function.
The incidence of treatment-emergent adverse events (TEAEs) was monitored continuously during the study. TEAEs were graded by the investigator as mild, moderate, or severe, and related or not related to study medication. Vital signs, height, weight, and clinical laboratory evaluations were performed at each study visit. The Behavior Rating Inventory of Executive Function (BRIEF) was administered at baseline and periodically during the treatment period to assess for any effects of treatment on cognitive function. Doppler echocardiography (ECHOs) and 12-lead electrocardiography (ECGs) were performed during the screening/baseline period, after 6 weeks of treatment, and after 14 weeks of treatment at the end of the maintenance period. The ECGs and ECHOs were evaluated by two independent cardiologists who were blind to treatment randomization. In the event of disagreement, a third cardiologist arbitrated the decision.

Compound: CCNC(C)Cc1cccc(C(F)(F)F)c1 (stereo not shown) [ZX008, fenfluramine hydrochloride]
- Longest seizure free interval, estimate of median treatment difference ([1]; 0.2 mg/kg/day vs placebo): -5.0 days
- Greater reduction in mean MCSF compared with placebo ([1]; 0.2 mg/kg/day): 33.7%
- Reduction from baseline in mean MCSF ([1]; 0.2 mg/kg/day, after 6 weeks of treatment): −26.3%
- Reduction from baseline in mean MCSF ([1]; 0.2 mg/kg/day, after 10 weeks of treatment): −22.4%
- Reduction from baseline in mean MCSF ([1]; 0.2 mg/kg/day, after 14 weeks of treatment): −22.2%
- 100% reduction (seizure freedom during entire 14-week treatment period), n of subjects ([1]; 0.2 mg/kg/day, n = 39): 3
- Longest seizure free interval, median ([1]; 0.2 mg/kg/day, n = 39): 14 days
- Percent change in convulsive seizure frequency per 28 days, LS means ± SE ([1]; 0.2 mg/kg/day, n = 39): −22.50 ± 9.28%
- Percent change in convulsive seizure frequency per 28 days, median ([1]; 0.2 mg/kg/day, n = 39): −37.6%
- Responder analysis ≥25% reduction in MCSF, % of subjects ([1]; 0.2 mg/kg/day, n = 39): (61.5%)
- Responder analysis ≥25% reduction in MCSF, OR vs placebo ([1]; 0.2 mg/kg/day, n = 39): 3.80
- Responder analysis ≥25% reduction in MCSF, n of subjects ([1]; 0.2 mg/kg/day, n = 39): 24
- Responder analysis ≥50% reduction in MCSF, % of subjects ([1]; 0.2 mg/kg/day, n = 39): (41.0%)
- Responder analysis ≥50% reduction in MCSF, OR vs placebo ([1]; 0.2 mg/kg/day, n = 39): 10.10
- Responder analysis ≥50% reduction in MCSF, n of subjects ([1]; 0.2 mg/kg/day, n = 39): 16
- Responder analysis ≥75% reduction in MCSF, % of subjects ([1]; 0.2 mg/kg/day, n = 39): (20.5%)
- Responder analysis ≥75% reduction in MCSF, OR vs placebo ([1]; 0.2 mg/kg/day, n = 39): 10.46
- Responder analysis ≥75% reduction in MCSF, n of subjects ([1]; 0.2 mg/kg/day, n = 39): 8
- Change in convulsive seizure frequency per 28 days, % Difference from placebo, LS mean (key secondary endpoint) ([1]; 0.2 mg/kg/day, n = 39, baseline vs titration + maintenance): −33.74%
- Near-seizure freedom (0 or a single seizure during 14-week Treatment Period), % of subjects ([1]; 0.2 mg/kg/day): 12.8%
- Near-seizure freedom (0 or a single seizure during 14-week Treatment Period), number of subjects ([1]; 0.2 mg/kg/day): 5
- Longest seizure free interval, estimate of median treatment difference ([1]; 0.8 mg/kg/day vs placebo): -11.5 days
- Greater reduction in mean MCSF compared with placebo ([1]; 0.8 mg/kg/day): 63.9%
- Reduction from baseline in mean MCSF ([1]; 0.8 mg/kg/day, after 6 weeks of treatment): −62.4%
- Reduction from baseline in mean MCSF ([1]; 0.8 mg/kg/day, after 10 weeks of treatment): −61.8%
- Reduction from baseline in mean MCSF ([1]; 0.8 mg/kg/day, after 14 weeks of treatment): −62.2%
- 100% reduction (seizure freedom during entire 14-week treatment period), n of subjects ([1]; 0.8 mg/kg/day, n = 40): 3
- Longest seizure free interval, median ([1]; 0.8 mg/kg/day, n = 40): 20.5 days
- Percent change in convulsive seizure frequency per 28 days, median ([1]; 0.8 mg/kg/day, n = 40): −72.4%
- Responder analysis ≥25% reduction in MCSF, % of subjects ([1]; 0.8 mg/kg/day, n = 40): (92.5%)
- Responder analysis ≥25% reduction in MCSF, OR vs placebo ([1]; 0.8 mg/kg/day, n = 40): 42.91
- Responder analysis ≥25% reduction in MCSF, n of subjects ([1]; 0.8 mg/kg/day, n = 40): 37
- Responder analysis ≥50% reduction in MCSF, % of subjects ([1]; 0.8 mg/kg/day, n = 40): (70.0%)
- Responder analysis ≥50% reduction in MCSF, OR vs placebo ([1]; 0.8 mg/kg/day, n = 40): 29.10
- Responder analysis ≥50% reduction in MCSF, n of subjects ([1]; 0.8 mg/kg/day, n = 40): 28
- Responder analysis ≥75% reduction in MCSF, OR vs placebo ([1]; 0.8 mg/kg/day, n = 40): 49.49
- Responder analysis ≥75% reduction in MCSF, n of subjects ([1]; 0.8 mg/kg/day, n = 40): 18
- Change in convulsive seizure frequency per 28 days, % Difference from placebo, LS mean (primary endpoint) ([1]; 0.8 mg/kg/day, n = 40, baseline vs titration + maintenance): −63.89%
- Near-seizure freedom (0 or a single seizure during 14-week Treatment Period), % of subjects ([1]; 0.8 mg/kg/day): 25%
- Near-seizure freedom (0 or a single seizure during 14-week Treatment Period), number of subjects ([1]; 0.8 mg/kg/day): 10
- BRIEF BRI, improvement compared to baseline as compared to placebo ([2]; 0.2 mg/kg/day, P<0.05): significant improvement
- BRIEF Global Executive Composite, change from baseline, mean ([2]; 0.2 mg/kg/day): −4.4 ± 22.3
- BRIEF BRI, improvement compared to baseline as compared to placebo ([2]; 0.8 mg/kg/day, P<0.05): statistically significant improvement
- BRIEF GEC, improvement compared to baseline as compared to placebo ([2]; 0.8 mg/kg/day, P<0.05): statistically significant improvement
- BRIEF Global Executive Composite, change from baseline, mean ([2]; 0.8 mg/kg/day): −11.0 ± 29.1
- BRIEF-P, difference from placebo ([2]; 0.2 and 0.8 mg/kg/day, hydrochloride): No changes
